Measurements taken from patent publication US20180296630A1, “METHODS AND COMPOSITIONS FOR PREVENTING OR TREATING OPHTHALMIC CONDITIONS” (Stealth BioTherapeutics Corp, priority 2012, published 2018).

Key:
[1] = tested on: GTM cells; test: Mitochondrial membrane potential of GTM cells exposed to H2O2 (TMRM, confocal microscopy / flow cytometry); assay type: cell-based, human
Source text: Methods to measure mitochondrial membrane potential using TMRM useful in the studies of the present invention have been described by Andrea Rasola and Massimo Geuna, A flow cytometry assay simultaneously detects independent apoptotic parameters, Cytometry 45:151-157, 2001; Mitoprobe™ JC-1 Kit for Flow Cytometry, Molecular Probes, Invitrogen, USA.
The mitochondrial membrane potential (Δψm) of HTM and GTM cells was investigated when those cells were exposed to hydrogen peroxide prior to administration of D-Arg-2′,6′-Dmt-Lys-Phe-NH2. First, the mitochondrial membrane potential was measured using confocal microscopy of cells labeled with tetramethylrhodamine methyl ester (TMRM, 500 nM×30 min) (FIG. 15). The mitochondrial membrane potential was also measured using flow cytometry (FIGS. 16-17) by labeling cells with the mitochondrion-selective probe tetramethylrhodamine methyl ester (TMRM, 500 nM×30 min).
The morphology of GTM cells was investigated when those cells were exposed to D-Arg-2′,6′-Dmt-Lys-Phe-NH2 prior to administration of hydrogen peroxide. […] That is, hydrogen peroxide mediated cell loss and rounding was diminished in cells exposed to D-Arg-2′,6′-Dmt-Lys-Phe-NH2 peptide. The mitochondrial membrane potential (Δψm) of HTM and GTM cells was also investigated when those cells were exposed to D-Arg-2′,6′-Dmt-Lys-Phe-NH2 prior to administration of hydrogen peroxide. The mitochondrial membrane potential was measured using confocal microscopy of cells labeled with tetramethylrhodamine methyl ester (TMRM, 500 nM×30 min) (FIG. 19-21). […] As such, D-Arg-2′,6′-Dmt-Lys-Phe-NH2 provides a protective effect against oxidative stress in GTM cells.

[2] = tested on: 661W cells; test: Mitochondrial viability of 661W cells exposed to tBHP (JC-1 assay); assay type: cell-based, mouse; settings: 100 nmol/L
Experimental: The potential of D-Arg-2′,6′-Dmt-Lys-Phe-NH2 (D-Arg-2′,6′-Dmt-Lys-Phe-NH2) to protect against loss of mitochondrial viability induced by tBHP, 100 nmol/L D-Arg-2′,6′-Dmt-Lys-Phe-NH2 was administered to the cultures of 661w cells.

[3] = tested on: STZ-treated mice; test: Spatial frequency (SPF) threshold in STZ-treated / diabetic-diet mice; assay type: in vivo
Experimental: Subjects were maintained on a normal diet (ND) or diabetic diet (DD) for up to 32 weeks, and were administered D-Arg-2′,6′-Dmt-Lys-Phe-NH2 or control vehicle with or without streptozotocin. Results are shown in FIG. 41, with response values are averaged for each eye.

[4] = tested on: trabecular meshwork cells from non-diseased individuals (HTM); test: LDH cytotoxicity assay, HTM cells; assay type: cell-based, human
Source text: In this Example, the effects of the aromatic-cationic peptides of the invention were compared between trabecular meshwork cells from POAG patients (GTM) and trabecular meshwork cells from non-diseased individuals (HTM). Methods useful in the studies of the present invention have been described. See generally, He Y, Ge J, Tombran-Tink J., Mitochondrial defects and dysfunction in calcium regulation in glaucomatous trabecular meshwork cells. Invest Ophthalmol Vis Sci. 2008, 49(11):4912-22; He Y, Leung K W, Zhang Y H, Duan S, Zhong X F, Jiang R Z, Peng Z, Tombran-Tink J, Ge J. Mitochondrial complex I defect induces ROS release and degeneration in trabecular meshwork cells of POAG patients: protection by antioxidants. Invest Ophthalmol Vis Sci. 2008, 49(4):1447-58. […]
To assess whether D-Arg-2′,6′-Dmt-Lys-Phe-NH2 had cytotoxic effects of HTM or GTM cells, various concentrations of D-Arg-2′,6′-Dmt-Lys-Phe-NH2 were administered to cells and the cytotoxicity was measured using an LDH assay. […] The assay quantitatively measures the stable, cytosolic, lactate dehydrogenase (LDH) enzyme, which is released from damaged cells. The released LDH is measured with a coupled enzymatic reaction that results in the conversion of a tetrazolium salt (iodonitrotetrazolium (INT)) into a red color formazan by diaphorase. […] The LDH activity is determined as NADH oxidation or INT reduction over a defined time period.

[5] = tested on: HFD/STZ diabetic rats; test: Lens opacity (cataract) in HFD/STZ rat model; assay type: in vivo, Sprague-Dawley rat; settings: for Percentage of opacity / Percentage of severe opacity / Turbidity degree + (mildly opaque), number in group / Turbidity degree ++ (opaque), number in group / Turbidity degree +++ (moderately opaque), number in group / Turbidity degree ++++ (severely opaque), number in group / Turbidity degree − (transparent), number in group: HFD/STZ rat model
Experimental: A rat model of diabetes was established by combination of 6-week HFD and low dose of STZ (30 mg/kg) injection or a single high dose of STZ (65 mg/kg) in SD rats. See generally, K. Srinivasan, B. Viswanad, Lydia Asrat, C. L. Kaul and P. Ramarao, Combination of high-fat diet-fed and low-dose streptozotocin-treated rat: A model for type 2 diabetes and pharmacological screening, Pharmacological Research, 52(4): 313-320, 2005. Rats of the same batch fed with normal chow (NRC) were used as a control.

For D-Arg-2′,6′-Dmt-Lys-Phe-NH2, the “decrease in mitochondrial potential (Δψm) elicited by H2O2” value ([1]; GTM cells, co-treatment, 200 μM H2O2, confocal) was “dose-dependently inhibited the decrease”, the “loss of mitochondrial membrane potential caused by H2O2” value ([1]; GTM cells, co-treatment, 400 μM H2O2, dose-dependent, confocal) was “reduced the loss” and the mitochondrial membrane potential ([1]; cells exposed to hydrogen peroxide prior to administration of peptide (Group A)) was “improves”. The mitochondrial membrane potential ([1]; pre-treatment with peptide before hydrogen peroxide (Group B)) was “dose-dependently improves”, the “mitochondrial viability (JC-1 assay)” value [2] was “significantly enhanced” and the “rescue of visual impairment by eyedrop versus systemic administration” value ([3]; STZ-treated animals maintained on a diabetic diet, eyedrop) was “one month sooner”. For the same substance, the “time by which the visual deficit was fully rescued” value ([3]; STZ-treated animals, systemic treatment initiated at 12 weeks) was at most 24 weeks, the “time by which rescue was shown” value ([3]; animals on a diabetic diet alone) was at most 30 weeks and the “time by which the visual deficit was fully restored” value ([3]; animals on a diabetic diet and administered STZ) was at most 24 weeks. For the same substance, the “visual impairment (spatial frequency threshold)” value ([3]; animals with metabolic dysfunction) was “rescued”, the cytotoxicity ([4]; 10^−4M) was “no cytotoxicity” and the “viability (LDH assay)” value ([4]; various concentrations) was “does not affect the viability”. The “cataract formation in the lenses of diabetic rats” value ([5]; HFD/STZ and STZ models (FIGS. 6 and 7, Tables 13 and 14)) was “prevention or reversal of cataract formation”, the Percentage of opacity ([5]; 1 mg (Table 9: 1 mg/kg s.c.)) was 67.7% and the “Percentage of severe opacity” value ([5]; 1 mg (Table 9: 1 mg/kg s.c.)) was 0%. For the same substance, the “Turbidity degree + (mildly opaque), number in group” value (“Turbidity degree + (mildly opaque)” for short) ([5]; 1 mg (Table 9: 1 mg/kg s.c.)) was 1, the “Turbidity degree ++ (opaque), number in group” value (“Turbidity degree ++ (opaque)” for short) ([5]; 1 mg (Table 9: 1 mg/kg s.c.)) was 1 and the “Turbidity degree +++ (moderately opaque), number in group” value ([5]; 1 mg (Table 9: 1 mg/kg s.c.)) was 0. For the same substance, the “Turbidity degree ++++ (severely opaque), number in group” value (shortened to “Turbidity degree ++++ (severely opaque)”) ([5]; 1 mg (Table 9: 1 mg/kg s.c.)) was 0, the “Turbidity degree − (transparent), number in group” value (shortened to “Turbidity degree − (transparent)”) ([5]; 1 mg (Table 9: 1 mg/kg s.c.)) was 1 and the Percentage of opacity ([5]; 3 mg (Table 9: 3 mg/kg s.c.)) was 20.0%. The “Percentage of severe opacity” value ([5]; 3 mg (Table 9: 3 mg/kg s.c.)) was 20.0%, the “Turbidity degree + (mildly opaque)” value ([5]; 3 mg (Table 9: 3 mg/kg s.c.)) was 1 and the “Turbidity degree ++ (opaque)” value ([5]; 3 mg (Table 9: 3 mg/kg s.c.)) was 0. The “Turbidity degree +++ (moderately opaque), number in group” value ([5]; 3 mg (Table 9: 3 mg/kg s.c.)) was 0, the “Turbidity degree ++++ (severely opaque)” value ([5]; 3 mg (Table 9: 3 mg/kg s.c.)) was 1 and the “Turbidity degree − (transparent)” value ([5]; 3 mg (Table 9: 3 mg/kg s.c.)) was 3. For the same substance, the Percentage of opacity ([5]; 10 mg (Table 9: 10 mg/kg s.c.)) was 14.3%, the “Percentage of severe opacity” value ([5]; 10 mg (Table 9: 10 mg/kg s.c.)) was 0% and the “Turbidity degree + (mildly opaque)” value ([5]; 10 mg (Table 9: 10 mg/kg s.c.)) was 1. The “Turbidity degree ++ (opaque)” value ([5]; 10 mg (Table 9: 10 mg/kg s.c.)) was 0, the “Turbidity degree +++ (moderately opaque), number in group” value ([5]; 10 mg (Table 9: 10 mg/kg s.c.)) was 0 and the “Turbidity degree ++++ (severely opaque)” value ([5]; 10 mg (Table 9: 10 mg/kg s.c.)) was 0. The “Turbidity degree − (transparent)” value ([5]; 10 mg (Table 9: 10 mg/kg s.c.)) was 6.
